Measurements reported in patent US6664397B1, “Use of (+)mefloquine for the treatment of malaria” (Vernalis Research Limited, priority 1997, dated 2003).
pKi: −log10 of the molar value.

Experiments:
travellers = conditions: 3851 travellers surveyed, prophylactic use; cited from earlier work
Plasmodium falciparum = conditions: Karle et al. 1993; cited from earlier work
[1] = molecular target: bovine striatal adenosine receptors (non-selective); conditions: displacement of [3H]-NECA
mice [2] = assay: Irwin screen of overt physiological and behavioral effects in mice; conditions: for reduced activity, unkempt appearance, hunched body posture (late effects): high dose, daily p.o. dosing, about five days
[3] = molecular target: T1, adenosine A2A receptors endogenously expressed in PC-12 cells (Rattus norvegicus, UniProt P30543); assay: Agonist-induced increase in extracellular acidification rate (ECAR) in PC-12 cells, cytosensor microphysiometer; format: cell-based
T1 construct: PC12 cells endogenously express adenosine A2A receptors; host or cells: PC-12 cells
Method: PC-12 cells (purchased from ECACC) were maintained in RPMI 1640 media (Sigma) supplemented with 2 mM L-glutamine and 10% FCS in a controlled environment of 5% CO2, 95% humidity at 37° C.
On the day of the assay the cells were gently harvested and centrifuged at 700 RPM for 10 min. The supernatant was discarded and the pellet re-suspended to a final density of approx. 1×10^6 cells/ml in modified RPMI 1640 media. 600 μl of this suspension was mixed with 200 μl of molten agarose cell entrapment media (Molecular Devices) pre-incubated to 37° C. The cell suspension was returned to the incubator for a further 10 minutes for equilibration. 10 μl of this cell agarose suspension was spotted onto the middle of the capsule insert well and allowed to set before being placed in the sensor chambers in the cytosensor® microphysiometer. […]
Agonist concentration curves were constructed by exposing the cells to increasing concentrations of agonist for a total exposure time of approximately 1 min 53 sec. Agonist concentration curves in the presence of antagonists were performed following pre-incubation of the cells to the antagonists for at least 20 min prior to agonist exposure (in the presence of the fixed antagonist concentration) Baseline acidification rates were normalised to 100%, and all responses were calculated as a % increase over normalised baseline. […]

mice [4] = assay: Potentiation of pentylenetetrazole-induced seizures (proconvulsant effect) in mice; conditions: 300 mg/kg p.o., 24 hrs after a single dose
[5] = molecular target: T2, human recombinant (HEK-293) adenosine A3 receptors (Homo sapiens, UniProt P0DMS8); conditions: comparative literature data for reference ligands; cited from earlier work
T2 construct: expressed in transfected cells; host or cells: HEK-293
T2 sequence (P0DMS8 1-318): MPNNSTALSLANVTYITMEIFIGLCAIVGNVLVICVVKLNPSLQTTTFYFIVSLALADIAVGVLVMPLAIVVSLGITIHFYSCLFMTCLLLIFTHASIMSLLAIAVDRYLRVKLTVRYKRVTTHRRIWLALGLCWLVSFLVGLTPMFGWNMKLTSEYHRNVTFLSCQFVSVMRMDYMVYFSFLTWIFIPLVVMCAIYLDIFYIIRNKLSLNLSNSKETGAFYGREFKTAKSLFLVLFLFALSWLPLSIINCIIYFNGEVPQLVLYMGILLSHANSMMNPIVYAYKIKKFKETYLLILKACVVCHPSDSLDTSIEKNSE

T1 sequence (P30543 whole entry): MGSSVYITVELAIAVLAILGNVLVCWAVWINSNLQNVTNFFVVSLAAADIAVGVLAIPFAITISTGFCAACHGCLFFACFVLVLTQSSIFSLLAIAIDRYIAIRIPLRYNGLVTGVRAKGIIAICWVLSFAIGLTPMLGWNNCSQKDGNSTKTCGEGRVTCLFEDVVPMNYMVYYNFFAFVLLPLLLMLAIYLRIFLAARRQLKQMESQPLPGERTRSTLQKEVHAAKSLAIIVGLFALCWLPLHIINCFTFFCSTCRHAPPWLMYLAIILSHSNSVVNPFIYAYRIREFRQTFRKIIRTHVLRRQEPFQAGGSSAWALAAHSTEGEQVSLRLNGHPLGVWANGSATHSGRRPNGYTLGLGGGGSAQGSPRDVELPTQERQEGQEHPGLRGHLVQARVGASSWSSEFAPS

SMILES | pKi [1] | reduced activity, unkempt appearance, hunched body posture (late effects) (mice [2]) | pKi [5] | also measured
O[C@H](c1cc(C(F)(F)F)nc2c(C(F)(F)F)cccc12)[C@@H]1CCCCN1 (racemic) [mefloquine, (R*,S*)-(±)-α-2-Piperidinyl-2,8-bis(trifluoromethyl)-4-quinolinemethanol] |  |  |  | adverse neuropsychiatric events compared with proguanil plus chloroquine (travellers): significant excess of adverse neuropsychiatric events
O[C@H](c1cc(C(F)(F)F)nc2c(C(F)(F)F)cccc12)[C@@H]1CCCCN1 [(+)-enantiomer, (+)-(11R,2′S)-α-2-piperidinyl-2,8-bis(trifluoromethyl)-4-quinolinemethanol] | 4.42 | these effects only became apparent after 5-6 days, and did not include seizures |  | factor by which the (+)-enantiomer was more potent than the (−)-enantiomer (Plasmodium falciparum): 1.69-1.81
O[C@@H](c1cc(C(F)(F)F)nc2c(C(F)(F)F)cccc12)[C@H]1CCCCN1 [(−)-enantiomer, (−)-(11S,2′R)-α-2-piperidinyl-2,8-bis(trifluoromethyl)-4-quinolinemethanol] | 7.08 | showed reduced activity, unkempt appearance and assumed a hunched body posture |  | effect on the CGS 21680-induced increase in ECAR ([3]; agonist CGS 21680, FIG. 6): specific to adenosine A2A receptors; effect on the NECA-induced increase in ECAR ([3]; agonist NECA, FIG. 5): binds to adenosine receptors as an antagonist; latency to onset of clonic seizures induced by infusion of pentylenetetrazole (PTZ) (mice [4]): significantly reduced the latency to onset of clonic seizures; behavioral effects twenty-four hours after the first dose (mice [2]; 300 mg/kg p.o., 24 hours): difficult to handle and displayed aggression toward cage-mates; qualitative behavioral difference between the enantiomers (mice [2]; daily dosing 30, 100, 300 mg/kg p.o.): appearing more potent in eliciting spontaneous seizures, irritability and aggressiveness
OC[C@H]1O[C@@H](n2cnc3c(NC4CCCCC4)ncnc32)[C@H](O)[C@@H]1O [CHA] |  |  | 5.11 | 
CNC(=O)[C@H]1O[C@@H](n2cnc3c(N)ncnc32)[C@H](O)[C@@H]1O [MECA, 5′-N-methylcarboxamidoadenosine, reference compound] | 7.24 |  |  | 
Nc1nc(NCCc2ccc(O)cc2)nc2nc(-c3ccco3)nn12 [ZM241385] |  |  | 3.82 | 
